Here are results for 66 compounds from patent publication US9920017B2, “Heterocyclic compounds as pesticides” (BAYER CROPSCIENCE AKTIENGESELLSCHAFT, priority 2014, dated 2018).

Where two headings read alike, the source gives them in different places.

This data set can be described thus: Determination of log P values by HPLC (reversed-phase C18). In kind it is physicochemical. As to conditions: for chromatographic logP: reversed-phase C18 HPLC column; for logP (neutral): compounds of formula (IIa-1), R3 hydrogen. As for the experimental part:
1) Description of Method for Determination of the Log P Values ([…]) The log P values given in the table were determined in accordance with EEC Directive 79/831 Annex V.A8 by HPLC (High Performance Liquid Chromatography) using a reversed-phase column (C 18). Temperature: 55° C. […] Gradient: from 10% eluent A/90% eluent B to 95% eluent A/5% eluent B in 4.25 min. Calibration was effected with unbranched alkan-2-ones (having 3 to 16 carbon atoms) with known log P values (log P values determined on the basis of the retention times by linear interpolation between two successive alkanones). The lambda max values were determined in the maxima of the chromatographic signals using the UV spectra from 200 nm to 400 nm.

Where [1] appears, read: HPLC, reversed-phase C18, 55° C., final compounds table.
Setting [2] is: pH 3.4, HPLC-MS, preparation examples, read-out: log P.
Where [3] appears, read: HPLC, reversed-phase C18, 55° C., final compounds table, read-out: log P neutral.
Where [4] appears, read: HPLC-MS, preparation examples, read-out: log P (neutral).

Consider `O=C(Nc1ncn(-c2ccccc2Cl)n1)c1c(F)cccc1F` [Compound I-1-6], for which the “log P neutral” value under setting [1] worked out at 1.90.

Turning to `O=C(Nc1ncn(-c2ccccc2C(F)(F)F)n1)c1ccccc1Cl` [Compound I-1-7], under setting [1], the “log P neutral” value worked out at 2.06. In the case of `O=C(Nc1ncn(-c2ccccc2OC(F)(F)F)n1)c1ccccc1Cl` [Compound I-1-9], the “log P neutral” value under setting [1] is listed as 2.32. On the same count and under the same terms, under `COc1ccccc1C(=O)Nc1ncn(-c2c(F)cccc2F)n1` [Compound I-1-16] stands 1.91; under `O=C(Nc1ncn(-c2c(F)cccc2F)n1)c1ccccc1OC(F)(F)F` [Compound I-1-17], 2.14; under `O=C(Nc1ncn(-c2c(F)cccc2F)n1)c1cccnc1Cl` [Compound I-1-23], 1.24. On the same count and under the same terms, next, `O=C(Nc1ncn(-c2c(F)cccc2Cl)n1)c1ccccc1OC(F)(F)F` [Compound I-1-34]: 2.30; `O=C(Nc1ncn(-c2c(F)cccc2Cl)n1)c1ccccc1Cl` [Compound I-1-36]: 1.83; `Cc1cccc(F)c1-n1cnc(NC(=O)c2ccccc2C(F)(F)F)n1` [Compound I-1-37]: 2.19. `Cc1cccc(F)c1-n1cnc(NC(=O)c2ccccc2Cl)n1` [Compound I-1-38]: the “log P neutral” value under setting [1] is on record as 1.99. For the compound `Cc1cccc(F)c1-n1cnc(NC(=O)c2ccccc2I)n1` [Compound I-1-39], the “log P neutral” value under setting [1] is on record as 2.13. The same measure, in the same setting: next, `Cc1cccc(Cl)c1-n1cnc(NC(=O)c2ccccc2Cl)n1` [Compound I-1-41]: 2.04.

Turning to `CCc1cccc(Cl)c1-n1cnc(NC(=O)c2ccccc2Cl)n1` [Compound I-1-43], the “log P neutral” value under setting [1] was 2.36.

Take `Cc1cccc(C)c1-n1cnc(NC(=O)c2ccccc2Cl)n1` [Compound I-1-47]: the “log P neutral” value under setting [1] is 2.04. With `Cc1cccc(C)c1-n1cnc(NC(=O)c2ccccc2C(F)(F)F)n1` [Compound I-1-48], the “log P neutral” value under setting [1] is 2.26. `COc1cccc(C)c1-n1cnc(NC(=O)c2ccccc2C(F)(F)F)n1` [Compound I-1-49]: the “log P neutral” value under setting [1] is 2.15. Turning to `COc1cccc(C)c1-n1cnc(NC(=O)c2ccccc2Cl)n1` [Compound I-1-50], the “log P neutral” value under setting [1] is listed as 1.95. As for `O=C(Nc1ncn(-c2cccc(Cl)c2Cl)n1)c1ccccc1C(F)(F)F` [Compound I-1-51], under setting [1], the “log P neutral” value came to 2.49. For `O=C(Nc1ncn(-c2cccc(Cl)c2Cl)n1)c1ccccc1Cl` [Compound I-1-52], the “log P neutral” value under setting [1] amounted to 2.29.

In the case of `O=C(Nc1ncn(-c2ccc(Cl)cc2Cl)n1)c1ccccc1C(F)(F)F` [Compound I-1-53], the “log P neutral” value under setting [1] is listed as 2.58.

For the compound `O=C(Nc1ncn(-c2cc(Cl)ccc2Cl)n1)c1ccccc1C(F)(F)F` [Compound I-1-54], the “log P neutral” value under setting [1] amounted to 2.55.

`O=C(Nc1ncn(-c2cc(Cl)ccc2Cl)n1)c1ccccc1Cl` [Compound I-1-55]: the “log P neutral” value under setting [1] came out at 2.34.

As to `O=C(Nc1ncn(-c2c(F)c(F)c(F)c(F)c2F)n1)c1ccccc1Cl` [Compound I-1-66], the “log P neutral” value under setting [1] came out at 2.28. Regarding `CCc1ccccc1C(=O)Nc1ncn(-c2c(F)c(F)c(F)c(F)c2F)n1` [Compound I-1-68], the “log P neutral” value under setting [1] is recorded as 2.61.

Take `O=C(Nc1ncn(-c2ccccc2Br)n1)c1ccccc1Cl` [Compound I-1-71]: under setting [1], the “log P neutral” value is 1.96. In the case of `CCc1ccccc1C(=O)Nc1ncn(-c2ccccc2Br)n1` [Compound I-1-73], the “log P neutral” value under setting [1] was found to be 2.34. Same read-out and setting: next, `O=C(Nc1ncn(-c2ccccc2I)n1)c1ccccc1Cl` [Compound I-1-76]: 2.01. Turning to `O=C(Nc1ncn(-c2ccccc2I)n1)c1ccccc1I` [Compound I-1-77], under setting [1], the “log P neutral” value was 2.15.

For `CCc1ccccc1C(=O)Nc1ncn(-c2ccccc2I)n1` [Compound I-1-78], under setting [1], the “log P neutral” value is 2.31. In the case of `CCc1ccccc1C(=O)Nc1ncn(-c2c(Br)cccc2Br)n1` [Compound I-1-81], under setting [1], the “log P neutral” value came out at 2.45. Regarding `O=C(Nc1ncn(-c2c(F)cccc2I)n1)c1ccccc1Cl` [Compound I-1-84], the “log P neutral” value under setting [1] is on record as 2.02. Take `O=C(Nc1ncn(-c2c(Br)cc(F)cc2Br)n1)c1ccccc1Cl` [Compound I-1-88]: under setting [1], the “log P neutral” value is listed as 2.26.

In the case of `O=C(Nc1ncn(-c2c(F)cccc2F)n1)c1ccsc1I` [Compound I-1-94], the “log P neutral” value under setting [1] is 1.92.

Consider `CCc1ccccc1C(=O)Nc1ncn(-c2ccccc2C(F)(F)F)n1` [Compound I-1-95], for which, under setting [1], the “log P neutral” value came out at 2.33. As for `Cc1cc(C)c(S(=O)(=O)CC(F)(F)F)cc1-n1cnc(NC(=O)c2ccccc2C(F)(F)F)n1` [Compound I-1-96], the “log P neutral” value under setting [1] came out at 2.49.

Take `Cc1cc(C)c(-n2cnc(NC(=O)c3ccccc3C(F)(F)F)n2)cc1SCC(F)(F)F` [Compound I-1-98]: under setting [1], the “log P neutral” value stood at 3.21.

`COc1ccccc1-n1nnc(NC(=O)c2ccccc2C(F)(F)F)n1` [Compound I-2-1, N-[2-(2-Methoxyphenyl)-2H-tetrazol-5-yl]-2-(trifluoromethyl)benzamide]: the chromatographic logP by setting is: under setting [2], 2.19; under setting [3], 2.19. In the case of `COc1cc(F)ccc1-n1nnc(NC(=O)c2ccccc2C(F)(F)F)n1` [Compound I-2-2, N-[2-(4-Fluoro-2-methoxyphenyl)-2H-tetrazol-5-yl]-2-(trifluoromethyl)benzamide], the chromatographic logP is 2.35 under setting [2] and 2.35 under setting [3]. As to `CCO/C=N/c1noc(-c2ccccc2)n1` [Ethyl [5-phenyl-1,2,4-oxadiazol-3-yl]imidoformate], under setting [4], the chromatographic logP was determined as 2.87. As to `Nc1ncn(-c2c(Br)cc(F)cc2Br)n1` [IIa-1 R1=Br R2m=6-Br-4-F], the “logP (neutral)” value amounted to 1.35. Still for that read-out and setting: under `Nc1ncn(-c2c(Br)cccc2Br)n1` [IIa-1 R1=Br R2m=6-Br] stands 1.2; under `Nc1ncn(-c2ccccc2Br)n1` [IIa-1 R1=Br R2m=—], 1.03; under `Nc1ncn(-c2ccccc2C(F)(F)F)n1` [IIa-1 R1=CF3 R2m=—], 1.16. As to `COc1cccc(C)c1-n1cnc(N)n1` [IIa-1 R1=CH3 R2m=6-OCH3], the “logP (neutral)” value is given as 0.98. Regarding `Nc1ncn(-c2cccc(Cl)c2Cl)n1` [IIa-1 R1=Cl R2m=3-Cl], the “logP (neutral)” value was found to be 1.41. For the compound `Nc1ncn(-c2ccc(Cl)cc2Cl)n1` [IIa-1 R1=Cl R2m=4-Cl], the “logP (neutral)” value is 1.48. On to `Nc1ncn(-c2cc(Cl)ccc2Cl)n1` [IIa-1 R1=Cl R2m=5% Cl:], for which the “logP (neutral)” value is listed as 1.44. With `Nc1ncn(-c2c(Cl)cccc2Cl)n1` [IIa-1 R1=Cl R2m=6% Cl:], the “logP (neutral)” value was determined as 0.94. The same measure, in the same setting: next, `CCc1cccc(Cl)c1-n1cnc(N)n1` [IIa-1 R1=Cl R2m=6-C2H5]: 1.12; `Cc1cccc(Cl)c1-n1cnc(N)n1` [IIa-1 R1=Cl R2m=6-CH3]: 1.12; `Nc1ncn(-c2c(F)cccc2Cl)n1` [IIa-1 R1=Cl R2m=6-F]: 0.86. Still for that read-out and setting: next, `Nc1ncn(-c2ccccc2Cl)n1` [IIa-1 R1=Cl R2m=—]: 0.96; `Nc1ncn(-c2c(F)c(F)c(F)c(F)c2F)n1` [IIa-1 R1=F R2m=3,4,5,6-F4]: 1.31; `Nc1ncn(-c2c(F)ccc(F)c2F)n1` [IIa-1 R1=F R2m=3,6-F2-phenyl]: 0.84. On to `Nc1ncn(-c2c(F)cc(F)cc2F)n1` [IIa-1 R1=F R2m=4,6-F2], for which the “logP (neutral)” value turned out to be 0.82. As for `Cc1cccc(F)c1-n1cnc(N)n1` [IIa-1 R1=F R2m=6-CH3], the “logP (neutral)” value is 1.03.

`Nc1ncn(-c2c(F)cccc2I)n1` [IIa-1 R1=F R2m=6-I]: the “logP (neutral)” value came to 1.07. For `Nc1ncn(-c2ccccc2F)n1` [IIa-1 R1=F R2m=—], the “logP (neutral)” value came out at 0.86.

Turning to `Nc1ncn(-c2ccccc2I)n1` [IIa-1 R1=I R2m=—], the “logP (neutral)” value was found to be 1.13.

Turning to `Nc1ncn(-c2ccccc2OC(F)(F)F)n1` [IIa-1 R1=OCF3 R2m=—], the “logP (neutral)” value amounted to 1.44. Take `CO/C(=N\C#N)c1ccccc1` [Methyl N-cyanobenzenecarboximidoate]: under setting [4], the chromatographic logP was found to be 1.83. As to `O=C(Nc1nn[nH]n1)c1ccccc1C(F)(F)F` [N-(2H-Tetrazol-5-yl)-2-(trifluoromethyl)benzamide], the chromatographic logP under setting [2] was 1.17. For the compound `O=C(Nc1ncn(-c2c(F)cccc2F)n1)c1ccccc1` [N-[1-(2,6-Difluorophenyl)-1H-1,2,4-triazol-3-yl]benzamide], the chromatographic logP under setting [4] was found to be 1.59. Turning to `O=C(Nc1ncn(-c2c(F)cccc2Br)n1)c1ccccc1` [N-[1-(2-Bromo-6-fluorophenyl)-1H-1,2,4-triazol-3-yl]benzamide], under setting [4], the chromatographic logP is 1.79. On to `O=C(Nc1ncn(-c2ncc(F)cc2F)n1)c1ccccc1` [N-[1-(3,5-Difluoropyridin-2-yl)-1H-1,2,4-triazol-3-yl]benzamide], for which, under setting [4], the chromatographic logP amounted to 1.36. On to `O=C(Nc1ncn(-c2c(F)cccc2C(F)(F)F)n1)c1ccccc1` [N-{1-[2-Fluoro-6-(trifluoromethyl)phenyl]-1H-1,2,4-triazol-3-yl}benzamide], for which the chromatographic logP under setting [4] was found to be 1.95.
